Common to all, as to test: normalised viability (% of control), CellTiter-Blue; higher = more viable cells (about 100 = DMSO control)
Holding throughout (conditions): incubation time: 72 h
On the technique in general: Alamar Blue is a resazurin reagent that responds to reducing activity.

One assay deals with CAL-51. On the procedure:
(§1)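 DSRT, CellTiter-Blue viability, 72 h incubation. Signal is normalised to DMSO and benzethonium chloride controls. Value is the normalised response at dose 3.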

The next assay deals with CAL-120. On the procedure:
as §1

For a further assay, the system named is MDA-MB-231. On the procedure: as §1
For a further assay, the system named is BT-549. On the procedure: as §1
For the next assay, the system named is Hs578T. On the procedure:
as §1

A further assay concerns BT-474. On the procedure: as §1
Another assay deals with MFM-223. On the procedure: as §1
The subject of the next assay is DU-4475. On the procedure:
as §1

The test system of another assay is MDA-MB-436. On the procedure: as §1
In the next assay the test system is MDA-MB-453. On the procedure: as §1
Another assay deals with HDQ-P1. On the procedure:
as §1

The next assay has as its system SK-BR-3. On the procedure: as §1
For another assay, the system named is HCC1937. On the procedure:
as §1

For the next assay, the system named is HCC1143. On the procedure:
as §1

For a further assay, the system named is CAL-148. On the procedure:
as §1

For the next assay, the system named is CAL-85-1. On the procedure: as §1
A further assay has as its system HCC1599. On the procedure: as §1
Another assay relates to MDA-MB-468. On the procedure: as §1

Each structure is given as a SMILES string.

With `C=C(c1ccc(C(=O)O)cc1)c1cc2c(cc1C)C(C)(C)CCC2(C)C` [Bexarotene], the normalised viability in the assay on CAL-51 (10 nM) was 84.7%; with CAL-120 (100 nM), 104%; in the assay on MDA-MB-231 (100 nM), 80.5%; in the assay with BT-549 (100 nM), 73.2%; in the assay on Hs578T (100 nM), 70.7%; with BT-474 (100 nM), 102%. Besides, the normalised viability was determined as 87.4% in the assay with MFM-223 (100 nM); 110% in the assay with DU-4475 (10 nM); 77.2% with MDA-MB-436 (100 nM); 92% in the assay on MDA-MB-453 (10 nM); 86.4% in the assay on HDQ-P1 (10 nM); 82.6% in the assay with SK-BR-3 (100 nM). In addition, the normalised viability in the assay on HCC1937 (100 nM) worked out at 93.5%; with HCC1143 (100 nM) it was 115%; in the assay on CAL-148 (10 nM), 101%; in the assay on CAL-85-1 (10 nM) it was 97%; in the assay with HCC1599 (100 nM) it was 88%; in the assay on MDA-MB-468 (100 nM), 108%.
As to `CN(C)/N=N/c1[nH]cnc1C(N)=O` [Dacarbazine], the normalised viability amounted to 85.9% in the assay with CAL-51 (10 nM); 77.9% in the assay with CAL-120 (100 nM); 93.1% in the assay with MDA-MB-231 (100 nM); 99.4% in the assay on BT-549 (100 nM); 106% in the assay on Hs578T (100 nM); 117% in the assay on BT-474 (100 nM). The normalised viability in the assay with MFM-223 (100 nM) came to 88.8%; with DU-4475 (10 nM) it was 98.4%; in the assay on MDA-MB-436 (100 nM), 86.8%; in the assay with MDA-MB-453 (10 nM), 99.2%; in the assay with HDQ-P1 (10 nM), 111%; with SK-BR-3 (100 nM), 86.9%. The normalised viability with HCC1937 (100 nM) amounted to 106%; in the assay with HCC1143 (100 nM) it was 89.2%; in the assay on CAL-148 (10 nM), 96.4%; in the assay with CAL-85-1 (10 nM), 91.8%; with HCC1599 (100 nM), 78.8%; with MDA-MB-468 (100 nM), 112%.
With `CCC1(c2ccc(N)cc2)CCC(=O)NC1=O` (centres undefined) [Aminoglutethimide], the normalised viability in the assay on CAL-51 (10 nM) is 93.5%; in the assay with CAL-120 (100 nM), 121%; with MDA-MB-231 (100 nM), 93.7%; with BT-549 (100 nM), 73.2%; in the assay with Hs578T (100 nM), 80.6%; in the assay on BT-474 (100 nM), 112%. In addition, the normalised viability in the assay on MFM-223 (100 nM) worked out at 97%; in the assay on DU-4475 (10 nM), 104%; in the assay with MDA-MB-436 (100 nM) it was 90.9%; with MDA-MB-453 (10 nM), 86.3%; with HDQ-P1 (10 nM), 93.5%; with SK-BR-3 (100 nM) it was 105%. The normalised viability turned out to be 91.3% with HCC1937 (100 nM); 113% with HCC1143 (100 nM); 99.1% with CAL-148 (10 nM); 101% in the assay on CAL-85-1 (10 nM); 104% with HCC1599 (100 nM); 102% with MDA-MB-468 (100 nM).
`CCN(CCCOc1ccc2c(Nc3cc(CC(=O)Nc4cccc(F)c4)[nH]n3)ncnc2c1)CCOP(=O)(O)O` [Barasertib]: the normalised viability turned out to be 96% with CAL-51 (1 nM); 88.1% with CAL-120 (10 nM); 102% in the assay on MDA-MB-231 (10 nM); 96.8% with BT-549 (10 nM); 87.9% in the assay with Hs578T (10 nM); 90.2% in the assay on BT-474 (10 nM). Moreover, the normalised viability with MFM-223 (10 nM) amounted to 93.4%; in the assay with DU-4475 (1 nM), 102%; with MDA-MB-436 (10 nM), 113%; in the assay with MDA-MB-453 (1 nM), 108%; in the assay on HDQ-P1 (1 nM) it was 111%; in the assay on SK-BR-3 (10 nM), 68.3%. The normalised viability came to 101% in the assay with HCC1937 (10 nM); 111% in the assay on HCC1143 (10 nM); 102% in the assay on CAL-148 (1 nM); 95.5% in the assay on CAL-85-1 (1 nM); 101% in the assay with HCC1599 (10 nM); 99.4% in the assay on MDA-MB-468 (10 nM).
In the case of `CC(=O)Nc1ccc(C(=O)Nc2ccccc2N)cc1` [CI-994], the normalised viability in the assay with CAL-51 (1 nM) is 94%; with CAL-120 (10 nM) it was 114%; in the assay on MDA-MB-231 (10 nM), 103%; in the assay with BT-549 (10 nM), 96.9%; in the assay with Hs578T (10 nM), 97.8%; in the assay with BT-474 (10 nM) it was 106%. Further, the normalised viability in the assay on MFM-223 (10 nM) was found to be 97.5%; in the assay with DU-4475 (1 nM), 93.9%; in the assay on MDA-MB-436 (10 nM) it was 94.2%; in the assay on MDA-MB-453 (1 nM), 113%; in the assay with HDQ-P1 (1 nM), 113%; with SK-BR-3 (10 nM), 78.2%. The normalised viability worked out at 108% with HCC1937 (10 nM); 111% with HCC1143 (10 nM); 98.1% with CAL-148 (1 nM); 91.7% with CAL-85-1 (1 nM); 108% with HCC1599 (10 nM); 108% in the assay on MDA-MB-468 (10 nM).
In the case of `C[C@@H](Oc1cc(-c2cnn(C3CCNCC3)c2)cnc1N)c1c(Cl)ccc(F)c1Cl` [Crizotinib], the normalised viability was 107% in the assay on CAL-51 (10 nM); 96.8% in the assay on CAL-120 (100 nM); 84.7% in the assay on MDA-MB-231 (100 nM); 95.2% in the assay with BT-549 (100 nM); 64.8% in the assay with Hs578T (100 nM); 92.7% in the assay with BT-474 (100 nM). The normalised viability worked out at 83.4% in the assay with MFM-223 (100 nM); 91.3% with DU-4475 (10 nM); 84.8% in the assay on MDA-MB-436 (100 nM); 94.2% with MDA-MB-453 (10 nM); 85% with HDQ-P1 (10 nM); 59.1% with SK-BR-3 (100 nM). Besides, the normalised viability in the assay with HCC1937 (100 nM) worked out at 102%; with HCC1143 (100 nM) it was 95.8%; in the assay with CAL-148 (10 nM), 105%; in the assay with CAL-85-1 (10 nM) it was 93.8%; with HCC1599 (100 nM) it was 99.6%; in the assay with MDA-MB-468 (100 nM) it was 97.7%.
In the case of `Clc1ccc(Nc2nnc(Cc3ccncc3)c3ccccc23)cc1` [Vatalanib], the normalised viability came to 101% with CAL-51 (10 nM); 79.7% with CAL-120 (100 nM); 89.1% in the assay on MDA-MB-231 (100 nM); 81.4% in the assay on BT-549 (100 nM); 100% in the assay on Hs578T (100 nM); 100% in the assay on BT-474 (100 nM). The normalised viability with MFM-223 (100 nM) turned out to be 97.7%; in the assay with DU-4475 (10 nM) it was 97.9%; in the assay with MDA-MB-436 (100 nM), 119%; with MDA-MB-453 (10 nM), 111%; with HDQ-P1 (10 nM), 105%; in the assay on SK-BR-3 (100 nM), 66.5%. In addition, the normalised viability in the assay with HCC1937 (100 nM) was 112%; in the assay with HCC1143 (100 nM), 78.9%; in the assay on CAL-148 (10 nM), 84.4%; with CAL-85-1 (10 nM), 97.3%; with HCC1599 (100 nM), 109%; in the assay with MDA-MB-468 (100 nM) it was 100%.
`N[C@@H](CSC(c1ccccc1)(c1ccccc1)c1ccccc1)C(=O)O` [S-trityl-L-cysteine]: the normalised viability in the assay on CAL-51 (40 nM) is 87.4%; with CAL-120 (400 nM) it was 110%; in the assay on MDA-MB-231 (400 nM), 91.7%; in the assay on BT-549 (400 nM), 75.4%; in the assay on Hs578T (400 nM), 92.2%; in the assay on BT-474 (400 nM), 109%. Moreover, the normalised viability in the assay on MFM-223 (400 nM) turned out to be 99.8%; in the assay on DU-4475 (40 nM), 99.9%; in the assay on MDA-MB-436 (400 nM) it was 98.6%; in the assay on MDA-MB-453 (40 nM), 88.8%; in the assay on HDQ-P1 (40 nM), 94.1%; with SK-BR-3 (400 nM), 95.8%. The normalised viability with HCC1937 (400 nM) stood at 81.5%; in the assay on HCC1143 (400 nM), 122%; with CAL-148 (40 nM), 106%; in the assay on CAL-85-1 (40 nM) it was 101%; in the assay with HCC1599 (400 nM), 89.6%; in the assay on MDA-MB-468 (400 nM), 101%.

Values taken from the supplement of paper PMC4862054.
